The test system of experiment [1] is HCV replicon (Renilla luciferase) in HUH-7 cells. Put plainly: HCV replicon luciferase reporter assay. The class given is cell-based, Hepatitis C virus (strain 1b). To be noted: Huh-7, 96 h, 4 days. From the text: As a secondary assay, EC50 determinations from the replicon FRET assay were confirmed in a replicon luciferase reporter assay. Utilization of a replicon luciferase reporter assay was first described by Krieger et al (Krieger N, Lohmann V, and Bartenschlager R, J. Virol. 75(10):4614-4624 (2001)). The replicon construct described for our FRET assay was modified by inserting cDNA encoding a humanized form of the Renilla luciferase gene and a linker sequence fused directly to the 3′-end of the luciferase gene. This insert was introduced into the replicon construct using an Asc1 restriction site located in core, directly upstream of the neomycin marker gene. The adaptive mutation at position 1179 (serine to isoleucine) was also introduced (Blight K J, Kolykhalov, A A, Rice, C M, Science 290(5498): 1972-1974). A stable cell line constitutively expressing this HCV replicon construct was generated as described above. […] Following 4 days in a 37° C./5% CO2 incubator, cells were analyzed for Renilla Luciferase activity using the Promega Dual-Glo Luciferase Assay System. […] Plates were read on a Packard TopCount NXT using a luminescence program.
The percentage inhibition was calculated using the formula below: […]
The values were graphed and analyzed using XLfit to obtain the EC50 value.
A general note: A replicon is a self-replicating genome or part of one, used to study replication in cells.

Experiment [2] has as its target T1, porcine pancreatic elastase (PPE) (Sus scrofa, UniProt P00772).
T1 construct: purchased Sigma or EMDbiosciences
Nature of the experiment: Specificity assay, porcine pancreatic elastase. The class given is biochemical. To be noted: read-out: PPE activity in the specificity assays (IC50). The procedure:
(§1) The specificities of compounds of the present disclosure were determined against a variety of serine proteases: human neutrophil elastase (HNE), porcine pancreatic elastase (PPE) and human pancreatic chymotrypsin and one cysteine protease: human liver cathepsin B. In all cases, a 96-well plate format protocol using colorimetric p-nitroaniline (pNA) substrate or fluorometric Amino-Methyl-Coumarin (AMC) substrate, specific for each enzyme was used as described previously (PCT Patent Application No. WO 00/09543) with some modifications. All enzymes were purchased from Sigma or EMDbiosciences while the substrates were from Bachem.
(§2) Each pNA assay included a 2 hours enzyme-inhibitor pre-incubation at room temperature followed by addition of substrate and hydrolysis to ˜15% conversion as measured on a Spectramax Pro microplate reader. The cathepsin B assay was initiated by adding substrate to a 10 min enzyme-inhibitor pre-incubation at room temperature, and the assay plate measured immediately using the Cytofluor Series 4000. Compound concentrations varied from 100 to 0.4 μM depending on their potency. […]
(§3) The percentage of inhibition was calculated using the formula: [1−((UVinh−UVblank)/(UVctl−UVblank))]×100 […]

The target in experiment [3] is T2, human pancreatic chymotrypsin (Homo sapiens, UniProt P17538).
T2 construct: purchased Sigma or EMDbiosciences
T2 sequence (P17538 19-263): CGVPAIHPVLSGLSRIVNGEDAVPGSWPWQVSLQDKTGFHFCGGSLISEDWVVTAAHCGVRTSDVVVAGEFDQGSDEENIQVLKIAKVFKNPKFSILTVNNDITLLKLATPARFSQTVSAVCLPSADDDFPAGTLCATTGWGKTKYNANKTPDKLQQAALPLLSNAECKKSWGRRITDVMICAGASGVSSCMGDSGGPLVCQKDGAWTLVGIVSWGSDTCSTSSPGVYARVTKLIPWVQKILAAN
Nature of the experiment: Specificity assay, chymotrypsin. The class given is biochemical. The settings on record: read-out: Chymotrypsin activity in the specificity assays (IC50). As for the experimental part: as §1, §2, §3

Another experiment deals with T3, human liver cathepsin B (Homo sapiens, UniProt P07858).
T3 construct: purchased Sigma or EMDbiosciences; host or cells: human liver
Put plainly: Specificity assay, cathepsin B. Type of experiment: biochemical. The settings on record: read-out: Cathepsin B activity in the specificity assays (IC50). The procedure:
as §1, §2, §3

T1 sequence (P00772 27-266): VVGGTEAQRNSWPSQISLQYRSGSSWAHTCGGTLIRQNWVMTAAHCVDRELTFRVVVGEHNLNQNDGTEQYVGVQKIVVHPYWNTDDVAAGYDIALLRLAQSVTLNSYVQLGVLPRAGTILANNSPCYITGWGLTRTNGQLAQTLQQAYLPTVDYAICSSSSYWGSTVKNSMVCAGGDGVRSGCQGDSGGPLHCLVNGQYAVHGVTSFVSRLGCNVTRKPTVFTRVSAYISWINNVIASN

By EC50 is commonly meant the concentration that produces a half-maximal response. The low end stands for a more potent agent, the high end for a less potent agent. Broadly, the IC50 is the point on the concentration scale where inhibition reaches its midpoint. As for `C=C[C@@H]1C[C@]1(NC(=O)[C@@H]1C[C@@H](OC(=O)N2Cc3cccc(F)c3C2)CN1C(=O)[C@@H](OC(=O)NC(C)(C)C)C(C)(C)C)C(=O)NS(=O)(=O)C1CC1` [Example 56Compound 56], a half-maximal response in experiment [1] (EC50) required 0.247 µM. For the same molecule, the IC50 (in experiment [2]; in experiment [3]; at human liver cathepsin B) was > 100 µM throughout.

The values above are taken from patent US7323447B2, “Hepatitis C virus inhibitors” (Bristol-Myers Squibb Company, priority 2005, dated 2008).
